Test results published in patent publication US6306860A, “2,5-pyridinedicarboxylic acid derivatives” (Dong Wha Pharm. Inc. Co., Ltd., priority 1998, dated 2001).
Where a name gives a salt, the structure may show the parent alone.

Key:
[1] = target: T1, HBV polymerase (Hepatitis B virus genotype D subtype ayw, UniProt P03156); test: Inhibitory activities against HBV polymerase (reverse transcriptase activity) in vitro; type: biochemical; settings: read-out: Inhibitory activity of HBV-RT (%); for inhibition at 0.01 µg/mL: 0.01 μg/ml; for inhibition at 0.1 µg/mL: 0.1 μg/ml; for inhibition at 1 µg/mL: 1 μg/ml
T1 construct: made in house; host or cells: E. coli
T1 sequence (P03156 whole entry): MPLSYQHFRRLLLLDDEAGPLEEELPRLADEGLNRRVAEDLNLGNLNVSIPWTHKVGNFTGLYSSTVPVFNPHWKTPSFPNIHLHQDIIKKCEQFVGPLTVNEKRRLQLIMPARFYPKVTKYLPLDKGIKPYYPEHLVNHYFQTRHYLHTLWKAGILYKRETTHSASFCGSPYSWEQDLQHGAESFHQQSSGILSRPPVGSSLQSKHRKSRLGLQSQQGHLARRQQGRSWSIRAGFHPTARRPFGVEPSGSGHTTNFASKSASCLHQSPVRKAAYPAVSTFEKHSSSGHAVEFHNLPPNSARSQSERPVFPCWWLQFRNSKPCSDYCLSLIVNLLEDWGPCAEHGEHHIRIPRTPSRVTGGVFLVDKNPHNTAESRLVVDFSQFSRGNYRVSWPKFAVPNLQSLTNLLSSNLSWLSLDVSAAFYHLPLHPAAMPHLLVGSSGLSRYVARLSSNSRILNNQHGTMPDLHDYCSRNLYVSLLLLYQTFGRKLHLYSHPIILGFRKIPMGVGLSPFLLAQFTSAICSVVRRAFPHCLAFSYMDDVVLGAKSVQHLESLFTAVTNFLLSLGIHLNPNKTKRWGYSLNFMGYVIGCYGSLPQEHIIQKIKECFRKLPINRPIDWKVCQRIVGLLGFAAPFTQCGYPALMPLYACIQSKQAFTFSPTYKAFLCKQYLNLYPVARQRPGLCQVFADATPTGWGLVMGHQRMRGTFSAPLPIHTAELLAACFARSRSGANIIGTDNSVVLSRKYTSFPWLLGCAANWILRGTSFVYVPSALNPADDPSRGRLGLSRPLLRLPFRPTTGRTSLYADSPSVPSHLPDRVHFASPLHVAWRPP
From the text: Experiment 1:Inhibitory Activities Against HBV Polymerase in vitro
Recently, the inventors of the present invention have produced a recombinant HBV polymerase that is expressed from E.coli transformant, measured its enzyme activity and filed patent applications threrof [Korean Pat. Appl. Nos. 94-3918 and 96-33998].
The inventors have also established a method of measuring the reverse transcriptase activity of HBV polymerase in vitro. The fundamental principle is the same as the ELISA method, and after reacting the substrate with biotin- and DIG-modified nucleotide, a method of recognizing the polymerized substrate as anti-DIG antibody with peroxidase was used.
20 μl of HBV polymerase, 20 μl of reaction mixture and 20 μl of test compound was mixed and reacted at 14° C.~30° C. for 18~24 hours. Then, the inhibitory effect of the test compound against reverse transcriptase activity in the HBV polymerase was examined, compared with the results of control tests without the test compound.

[2] = target: T2, HIV reverse transcriptase (Human immunodeficiency virus type 1 group M subtype B, UniProt P04585); test: In vitro inhibition test against HIV reverse transcriptase; type: biochemical; settings: read-out: Inhibitory activity of HIV-RT (%); for inhibition at 0.1 µg/mL: 0.1 μg/ml; for inhibition at 1 µg/mL: 1 μg/ml
T2 construct: purchased Boehringer Mannheim
Procedure: Experiment 2: The in vitro Inhibition Test Against HIV Reverse Transcriptase
The inhibitory activity in vitro was measured using a non-radioactive reverse transcriptase assay Kit (Boehringer Mannheim).
At first, 20 μl(40 ng) of HIV-RT was added to the wells, coated with streptavidin and with the addition of 20 μl reaction mixture containing template/primer hybrid poly(A)/oligo(dT)15 and DIG-(digoxigenin)-dUTP, biotin-dUTP and TTP, 20 μl of test compound was added and reacted at 37° C. for 1 hour. The control without test compound was used for the comparison of related activity. Since DNA containing nucleotide labeled with digoxigenin and biotine was prepared by the action of HIV-RT, it was combined with streptavidin coated at the bottom of the wells. After the reaction was completed, remaining impurities were removed by washing each well with 250 μl buffer solution (pH 7.0) for 30 seconds 5 times and with the addition of 200 μl anti-DIG-POD antibody, the mixture was reacted at 37° C. for 1 hour. For the removal of remaining impurities again, the reacting solution was washed with a buffer solution and with the addition of 200 μl ABTS™ each, a substrate of POD(peroxidase), the solution was reacted at room temperature for 30 minutes. The absorbance was read by ELISA reader at 405 nm for the assay of reverse transcriptase activity and its inhibition activity.

SMILES | inhibition at 0.01 µg/mL [1] | inhibition at 0.1 µg/mL [1] | inhibition at 1 µg/mL [1] | inhibition at 0.1 µg/mL [2] | inhibition at 1 µg/mL [2]
COCCN(CCOC)C(=O)c1ccc(C(=O)N2CCN(c3ncccc3NC(C)C)CC2)nc1 [Exam. 42, 5-[N,N-bis(2-methoxyethyl)carbamoyl]-2-[1-[3-(isopropylamino)-2-pyridyl]piperazin-4-yl-carbonyl]pyridine.HCl] | 15% | 52% | 70% | 20% | 54%
O=C(NCc1ccco1)c1ccc(C(=O)N2CCN(CCO)CC2)nc1 [Exam. 103, N-(2-Furylmethyl)-6-[1-(2-hydroxyethyl)piperazin-4-yl-carbonyl]nicotinamide.HCl] | 20% | 54% | 72% | 65% | 80%
CC(C)Nc1cccnc1N1CCN(C(=O)c2ccc(C(=O)Nc3cnccn3)cn2)CC1 [Exam. 72, 6-[1-[3-(isopropylamino)-2-pyridyl]piperazin-4-yl-carbonyl]-N-(pyrazine-2-yl)nicotinamide] | 16% | 53% | 64% | 66% | 83%
CC(C)CNC(=O)c1ccc(C(=O)N2CCN(c3ncccc3NC(C)C)CC2)nc1 [Exam. 30, 2-[1-[3-(isopropylamino)-2-pyridyl]piperazin-4-yl-carbonyl]-5-[N-(2-methylpropyl)carbamoyl]pyridine] | 61% | 65% | 83% | 32% | 58%
Cc1csc(NC(=O)c2ccc(C(=O)N3CCN(c4ncccc4NC(C)C)CC3)nc2)n1 [Exam. 68, 6-[1-[3-(isopropylamino)-2-pyridyl)piperazin-4-yl-carbonyl]-N-(4-methyl-1,3-thiazol-2-yl)nicotinamide] | 30% | 69% | 81% | 53% | 70%
CCNC(=O)c1ccc(C(=O)N2CCN(CCO)CC2)nc1 [Exam. 89, N-ethyl-6-[1-(2-hydroxyethyl)piperazin-4-yl-carbonyl]nicotinamide.HCl] | 35% | 50% | 68% | 35% | 62%
Cc1cc(NC(=O)c2ccc(C(=O)N3CCN(c4ncccc4NC(C)C)CC3)nc2)no1 [Exam. 67, 6-[1-[3-(isopropylamino)-2-pyridyl]piperazin-4-yl-carbonyl]-N-(5-methylisoxazol-3-yl)nicotinamide] | 25% | 50% | 72% | 30% | 58%
CC(C)Nc1cccnc1N1CCN(C(=O)c2ccc(C(=O)NC3CC3)cn2)CC1 [Exam. 35, 5-(N-cyclopropylcarbamoyl)-2-[1-[3-(isopropylamino)-2-pyridyl]piperazin-4-yl-carbonyl]pyridine] | 5% | 51% | 62% | 30% | 68%
CC(C)Nc1cccnc1N1CCN(C(=O)c2ccc(C(=O)NCCCn3ccnc3)cn2)CC1 [Exam. 83, N-[3-(1H-imidazol-1-yl)propyl]-6-[1-[3-(isopropylamino)-2-pyridyl]piperazin-4-yl-carbonyl]nicotinamide] | 65% | 72% | 89% | 30% | 62%
CC(C)Nc1cccnc1N1CCN(C(=O)c2ccc(C(=O)NCCN3CCOCC3)cn2)CC1 [Exam. 59, 2-[1-[3-(isopropylamino)-2-pyridyl]piperazin-4-yl-carbonyl]-5-[N-[2-(morpholin-4-yl)ethyl]carbamoyl]pyridine] | 49% | 60% | 70% | 15% | 61%
